Where two headings read alike, the source gives them in different places. Each block holds one compound with its values, some of them ahead of it.
Key:
Assay type in all cases: cell-based
human TLR7 = biological target: T1, human TLR7 (Homo sapiens, UniProt Q9NYK1); experiment: TLR7 inhibition reporter assay (HEK-Blue cells, secreted embryonic alkaline phosphatase reporter); settings: HEK-Blue cells overexpressing human TLR7, stimulated with gardiquimod 7.5 μM; read-out: TLR 7 IC50
T1 construct: host or cells: HEK-Blue cells (HEK293-derived reporter line)
T1 sequence (Q9NYK1 27-1049): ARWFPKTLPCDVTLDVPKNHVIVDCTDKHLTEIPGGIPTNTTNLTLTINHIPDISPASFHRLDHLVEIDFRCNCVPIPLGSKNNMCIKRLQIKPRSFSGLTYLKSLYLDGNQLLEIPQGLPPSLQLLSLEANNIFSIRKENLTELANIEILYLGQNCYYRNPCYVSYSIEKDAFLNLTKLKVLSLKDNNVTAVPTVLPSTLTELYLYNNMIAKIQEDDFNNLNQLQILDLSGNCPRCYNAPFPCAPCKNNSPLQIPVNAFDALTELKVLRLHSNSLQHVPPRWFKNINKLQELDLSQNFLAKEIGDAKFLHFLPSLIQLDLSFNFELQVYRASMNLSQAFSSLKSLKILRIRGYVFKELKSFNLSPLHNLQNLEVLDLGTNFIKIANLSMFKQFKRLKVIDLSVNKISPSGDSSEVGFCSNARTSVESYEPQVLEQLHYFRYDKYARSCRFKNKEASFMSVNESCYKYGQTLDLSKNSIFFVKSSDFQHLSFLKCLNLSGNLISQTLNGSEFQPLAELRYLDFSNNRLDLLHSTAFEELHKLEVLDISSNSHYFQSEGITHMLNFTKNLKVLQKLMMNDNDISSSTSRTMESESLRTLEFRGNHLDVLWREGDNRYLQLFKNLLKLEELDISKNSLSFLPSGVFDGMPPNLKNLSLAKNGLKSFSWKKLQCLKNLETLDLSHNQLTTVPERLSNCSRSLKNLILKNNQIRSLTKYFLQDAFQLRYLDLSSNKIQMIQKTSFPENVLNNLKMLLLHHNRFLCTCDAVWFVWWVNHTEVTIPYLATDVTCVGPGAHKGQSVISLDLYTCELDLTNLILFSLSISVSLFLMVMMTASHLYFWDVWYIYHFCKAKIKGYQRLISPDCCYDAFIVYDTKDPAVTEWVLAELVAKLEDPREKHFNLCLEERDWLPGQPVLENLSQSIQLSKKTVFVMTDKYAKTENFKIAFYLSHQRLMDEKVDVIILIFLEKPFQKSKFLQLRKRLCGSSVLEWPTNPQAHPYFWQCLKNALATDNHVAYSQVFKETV
In short: (§1)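 Agonist-driven SEAP output was measured in HEK-Blue reporter cells carrying human TLR7 (gardiquimod 7.5 μM), TLR8 (R848 15.9 μM) or TLR9 (ODN2006 5 nM). Compounds at 0.05 nM–50 μM final were added 30 min before stimulation at room temperature. After 22 h at 37 °C, percent inhibition was taken against agonist/DMSO wells and a reference inhibitor.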

human TLR8 = biological target: T2, human TLR8 (Homo sapiens, UniProt Q9NR97); experiment: TLR8 inhibition reporter assay (HEK-Blue cells, secreted embryonic alkaline phosphatase reporter); settings: HEK-Blue cells overexpressing human TLR8, stimulated with R848 15.9 μM; read-out: TLR 8 IC50
T2 construct: host or cells: HEK-Blue cells (HEK293-derived reporter line)
T2 sequence (Q9NR97 27-1041): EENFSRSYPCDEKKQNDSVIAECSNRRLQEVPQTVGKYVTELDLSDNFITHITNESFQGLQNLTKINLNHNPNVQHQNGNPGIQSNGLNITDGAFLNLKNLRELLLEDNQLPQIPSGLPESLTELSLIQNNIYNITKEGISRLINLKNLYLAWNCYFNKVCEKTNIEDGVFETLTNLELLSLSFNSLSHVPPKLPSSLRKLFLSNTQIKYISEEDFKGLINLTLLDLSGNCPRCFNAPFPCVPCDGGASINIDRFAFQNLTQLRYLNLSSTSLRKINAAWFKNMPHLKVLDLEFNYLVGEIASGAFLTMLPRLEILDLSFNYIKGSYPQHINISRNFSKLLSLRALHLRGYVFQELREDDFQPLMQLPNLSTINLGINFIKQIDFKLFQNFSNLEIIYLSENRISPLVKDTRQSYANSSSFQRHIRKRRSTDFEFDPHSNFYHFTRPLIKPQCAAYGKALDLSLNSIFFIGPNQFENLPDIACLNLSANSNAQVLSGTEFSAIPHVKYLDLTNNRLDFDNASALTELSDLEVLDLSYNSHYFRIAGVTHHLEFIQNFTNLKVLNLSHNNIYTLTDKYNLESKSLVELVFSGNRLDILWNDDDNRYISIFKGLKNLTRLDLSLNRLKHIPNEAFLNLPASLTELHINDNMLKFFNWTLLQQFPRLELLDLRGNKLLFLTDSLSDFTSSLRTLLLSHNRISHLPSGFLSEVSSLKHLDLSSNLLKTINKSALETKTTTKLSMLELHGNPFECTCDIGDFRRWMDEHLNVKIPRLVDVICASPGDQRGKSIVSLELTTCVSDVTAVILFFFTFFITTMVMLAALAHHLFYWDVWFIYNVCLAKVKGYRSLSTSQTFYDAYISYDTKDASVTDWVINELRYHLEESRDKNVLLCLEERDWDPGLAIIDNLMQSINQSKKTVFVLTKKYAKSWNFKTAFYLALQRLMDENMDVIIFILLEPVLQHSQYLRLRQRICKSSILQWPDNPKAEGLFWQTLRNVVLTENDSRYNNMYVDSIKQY
In short: as §1

human TLR9 = biological target: T3, human TLR9 (Homo sapiens, UniProt Q9NR96); experiment: TLR9 inhibition reporter assay (HEK-Blue cells, secreted embryonic alkaline phosphatase reporter); settings: HEK-Blue cells overexpressing human TLR9, stimulated with ODN2006 5 nM
T3 construct: host or cells: HEK-Blue cells (HEK293-derived reporter line)
T3 sequence (Q9NR96 26-1032): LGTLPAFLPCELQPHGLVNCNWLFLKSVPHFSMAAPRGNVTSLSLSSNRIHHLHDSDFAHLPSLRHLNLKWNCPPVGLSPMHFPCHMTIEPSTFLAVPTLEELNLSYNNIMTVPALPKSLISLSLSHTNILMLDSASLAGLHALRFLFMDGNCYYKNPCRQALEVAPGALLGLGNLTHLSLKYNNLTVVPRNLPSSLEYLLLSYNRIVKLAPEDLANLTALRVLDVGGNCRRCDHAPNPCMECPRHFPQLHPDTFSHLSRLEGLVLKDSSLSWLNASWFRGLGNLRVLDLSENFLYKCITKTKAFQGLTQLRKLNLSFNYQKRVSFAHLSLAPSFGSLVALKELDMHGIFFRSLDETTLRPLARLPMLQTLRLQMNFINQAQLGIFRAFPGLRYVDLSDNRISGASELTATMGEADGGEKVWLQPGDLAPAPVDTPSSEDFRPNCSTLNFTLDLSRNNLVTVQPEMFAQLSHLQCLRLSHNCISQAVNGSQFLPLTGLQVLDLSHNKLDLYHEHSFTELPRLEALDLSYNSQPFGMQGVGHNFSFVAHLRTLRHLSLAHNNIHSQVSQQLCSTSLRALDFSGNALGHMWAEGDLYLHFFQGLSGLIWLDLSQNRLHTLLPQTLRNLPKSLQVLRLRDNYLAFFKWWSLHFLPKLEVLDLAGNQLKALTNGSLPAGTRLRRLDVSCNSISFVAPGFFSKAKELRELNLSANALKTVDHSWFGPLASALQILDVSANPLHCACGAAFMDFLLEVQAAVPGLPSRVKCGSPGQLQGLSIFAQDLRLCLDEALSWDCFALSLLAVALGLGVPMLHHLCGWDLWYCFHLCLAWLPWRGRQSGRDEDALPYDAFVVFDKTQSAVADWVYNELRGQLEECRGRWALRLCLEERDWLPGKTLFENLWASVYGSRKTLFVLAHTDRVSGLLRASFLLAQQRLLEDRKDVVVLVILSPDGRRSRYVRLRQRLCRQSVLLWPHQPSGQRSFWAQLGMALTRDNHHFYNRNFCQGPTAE
In short: as §1

[1] = 22 hour incubation, reporter readout

SMILES: COc1ccc(-c2nc3cc(C4CCN(C5CCN(C(C)C)CC5)CC4)c(C(F)(F)F)cc3[nH]2)cc1OC [Example 10, 2-(3,4-dimethoxyphenyl)-5-(1′-isopropyl-[1,4′-bipiperidin]-4-yl)-6-(trifluoromethyl)-1H-benzo[d]imidazole]
- IC50 (human TLR7): > 50000 nM
- IC50 (human TLR8): > 50000 nM
- IC50 (human TLR9; [1]): 240 nM
- IC50 (human TLR9; read-out: TLR 9 IC50): 244 nM

SMILES: COc1ccc(-c2nc3c(C)cc(C4CCN(C5CC6(C5)CN(C(C)C)C6)CC4)cc3[nH]2)cc1OC [Example 12, 2-(3,4-dimethoxyphenyl)-6-(1-(2-isopropyl-2-azaspiro[3.3]heptan-6-yl)piperidin-4-yl)-4-methyl-1H-benzo[d]imidazole]
- IC50 (human TLR7): 22000 nM
- IC50 (human TLR8): > 50000 nM
- IC50 (human TLR9; [1]): 60 nM

SMILES: COc1ccc(-c2nc3c(C)cc(C4CCN(C5CCNCC5)CC4)cc3[nH]2)cc1OC [Example 13, 6-([1,4′-bipiperidin]-4-yl)-2-(3,4-dimethoxyphenyl)-4-methyl-1H-benzo[d]imidazole tris(2,2,2-trifluoroacetate)]
- IC50 (human TLR7): > 50000 nM
- IC50 (human TLR8): > 50000 nM
- IC50 (human TLR9; [1]): 620 nM
- IC50 (human TLR9; read-out: TLR 9 IC50): 617 nM

SMILES: COc1ccc(-c2nc3c(C)cc(C4CCN(C5CCN(C(=O)C(C)C)CC5)CC4)cc3[nH]2)cc1OC [Example 14, 1-(4-(2-(3,4-dimethoxyphenyl)-4-methyl-1H-benzo[d]imidazol-6-yl)-[1,4′-bipiperidin]-1′-yl)-2-methylpropan-1-one]
- IC50 (human TLR7): > 50000 nM
- IC50 (human TLR8): > 50000 nM
- IC50 (human TLR9; [1]): 510 nM
- IC50 (human TLR9; read-out: TLR 9 IC50): 509 nM

SMILES: COc1ccc(-c2nc3c(C)cc(C4CCN(C5CC6(C5)CN(C(C)C)C6)CC4)cc3n2C)cc1OC [Example 16, 2-(3,4-dimethoxyphenyl)-6-(1-(2-isopropyl-2-azaspiro[3.3]heptan-6-yl)piperidin-4-yl)-1,4-dimethyl-1H-benzo[d]imidazole tris(2,2,2-trifluoroacetate)]
- IC50 (human TLR7): 10000 nM
- IC50 (human TLR8): > 50000 nM
- IC50 (human TLR9; [1]): 100 nM
- IC50 (human TLR9; read-out: TLR 9 IC50): 10.4 nM

SMILES: Cc1cc(C2CCN(C3CCN(C(C)C)CC3)CC2)cc2c1nc(-c1ccc(S(C)(=O)=O)cc1)n2C [Example 22, 6-(1′-isopropyl-[1,4′-bipiperidin]-4-yl)-1,4-dimethyl-2-(4-(methylsulfonyl)phenyl)-1H-benzo[d]imidazole]
- IC50 (human TLR7): 24000 nM
- IC50 (human TLR8): > 50000 nM
- IC50 (human TLR9; [1]): 7.6 nM

These reach a lower IC50 (human TLR7). Values come first.

- IC50 (human TLR7): 4700 nM
- IC50 (human TLR8): > 50000 nM
- IC50 (human TLR9; [1]): 250 nM
- IC50 (human TLR9; read-out: TLR 9 IC50): 253 nM
SMILES: COc1ccc(-c2nc3ccc(C4CCN(C5CCN(C(C)C)CC5)CC4)cc3n2CC(F)F)cc1OC [Example 4, 1-(2,2-difluoroethyl)-2-(3,4-dimethoxyphenyl)-6-(1′-isopropyl-[1,4′-bipiperidin]-4-yl)-1H-benzo[d]imidazole]

- IC50 (human TLR7): 6800 nM
- IC50 (human TLR8): 840 nM
- IC50 (human TLR9; [1]): 250 nM
SMILES: COc1ccc(-c2nc3cc(C4CCN(C5CCN(C(C)C)CC5)CC4)ccc3n2C)cc1OC [Example 5, 2-(3,4-dimethoxyphenyl)-5-(1′-isopropyl-[1,4′-bipiperidin]-4-yl)-1-methyl-1H-benzo[d]imidazole]

- IC50 (human TLR7): 2900 nM
- IC50 (human TLR8): 29000 nM
- IC50 (human TLR9; [1]): 190 nM
- IC50 (human TLR9; read-out: TLR 9 IC50): 191 nM
SMILES: COc1ccc(-c2nc3cc(C4CCN(C5CCN(C(C)C)CC5)CC4)ccc3n2C(C)C)cc1OC [Example 6, 2-(3,4-dimethoxyphenyl)-1-isopropyl-5-(1′-isopropyl-[1,4′-bipiperidin]-4-yl)-1H-benzo[d]imidazole]

- IC50 (human TLR7): 5700 nM
- IC50 (human TLR8): > 50000 nM
- IC50 (human TLR9; [1]): 280 nM
- IC50 (human TLR9; read-out: TLR 9 IC50): 283 nM
SMILES: COc1ccc(-c2nc3cc(C4CCN(C5CCN(C(C)C)CC5)CC4)ccc3n2CC(F)F)cc1OC [Example 7, 1-(2,2-difluoroethyl)-2-(3,4-dimethoxyphenyl)-5-(1′-isopropyl-[1,4′-bipiperidin]-4-yl)-1H-benzo[d]imidazole]

- IC50 (human TLR7): 5000 nM
- IC50 (human TLR8): > 50000 nM
- IC50 (human TLR9; [1]): 33 nM
SMILES: COc1ccc(-c2nc3c(C)cc(C4CCN(C5CCN(C(C)C)CC5)CC4)cc3[nH]2)cc1OC [Example 11, 2-(3,4-dimethoxyphenyl)-6-(1′-isopropyl-[1,4′-bipiperidin]-4-yl)-4-methyl-1H-benzo[d]imidazole]

- IC50 (human TLR7): 7100 nM
- IC50 (human TLR8): > 50000 nM
- IC50 (human TLR9; [1]): 19 nM
SMILES: COc1ccc(-c2nc3c(C)cc(C4CCN(C5CCN(CC(C)C)CC5)CC4)cc3n2C)cc1OC [Example 15, 2-(3,4-dimethoxyphenyl)-6-(1′-isobutyl-[1,4′-bipiperidin]-4-yl)-1,4-dimethyl-1H-benzo[d]imidazole tris(2,2,2-trifluoroacetate)]

- IC50 (human TLR7): 8800 nM
- IC50 (human TLR8): > 50000 nM
- IC50 (human TLR9; [1]): 160 nM
- IC50 (human TLR9; read-out: TLR 9 IC50): 159 nM
SMILES: COc1ccc(-c2nc3c(C)cc(C4CCN(C5CCN(C(C)C)CC5)CC4)cc3n2C)cc1F [Example 23, 2-(3-fluoro-4-methoxyphenyl)-6-(1′-isopropyl-[1,4′-bipiperidin]-4-yl)-1,4-dimethyl-1H-benzo[d]imidazole]
